Where two headings read alike, the source gives them in different places.
Tests used:
PDGFRα = PDGFRα (Homo sapiens (Human), UniProt P16234); test: PDGFRα kinase enzyme assay (Promega PDGFRα Kinase Enzyme System, ADP-Glo); assay type: biochemical; details: 150 uM ATP
Summary of the method: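 Read-out was ADP-Glo: remaining ATP depleted, ADP converted to luminescence and compared with a standard curve.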

[1] = system: Oligodendrocyte progenitor cells (OPCs); test: In vitro OPC differentiation assay, MBP expression (immunocytochemistry); details: 72 hours of treatment; fold change over vehicle
[2] = system: Oligodendrocyte progenitor cells (OPCs); test: In vitro OPC differentiation assay, GPR17 expression (immunocytochemistry); details: 72 hours; for GPR17 Fold Induction (Over Vehicle; 3 μM): 3 μM (10× concentration, final 0.3 μM)
[3] = system: GPR17+ cells (newly differentiated oligodendrocytes); test: In vivo OPC differentiation, GPR17+ cells in brain; details: for fold induction at 3 mg/kg: Mus musculus, po, 24 h, read-out: GPR17 Fold Induction (Over Vehicle); for In vivo GPR17+ cells, GPR17 Fold Induction (Over Vehicle): adult female C57BL/6 mice, PO or IP, treatment period 1-3 days, entire brain, fold change over vehicle treated animals
[4] = 11-point dose response, 10,000 nM to 0.169 nM, BLQ = below limit of quantitation, read-out: IC50 Values on PDGFRα Kinase Inhibition, IC50
[5] = 5 μM (10× concentration, final 0.5 μM), fold change over vehicle
[6] = 20 ng purified PDGFRα, Poly (Glu4Tyr1) substrate, two hours, 11-point dose response, read-out: IC50 Values on PDGFRα Kinase Inhibition
[7] = 11-point dose response, 10,000 nM to 0.169 nM, BLQ = below limit of quantitation
[8] = primary rat OPCs, 5 μM (10x; final 0.5 μM per method), percent GPR17+ cells as fold change over vehicle

Sequence of PDGFRα (P16234 24-1089): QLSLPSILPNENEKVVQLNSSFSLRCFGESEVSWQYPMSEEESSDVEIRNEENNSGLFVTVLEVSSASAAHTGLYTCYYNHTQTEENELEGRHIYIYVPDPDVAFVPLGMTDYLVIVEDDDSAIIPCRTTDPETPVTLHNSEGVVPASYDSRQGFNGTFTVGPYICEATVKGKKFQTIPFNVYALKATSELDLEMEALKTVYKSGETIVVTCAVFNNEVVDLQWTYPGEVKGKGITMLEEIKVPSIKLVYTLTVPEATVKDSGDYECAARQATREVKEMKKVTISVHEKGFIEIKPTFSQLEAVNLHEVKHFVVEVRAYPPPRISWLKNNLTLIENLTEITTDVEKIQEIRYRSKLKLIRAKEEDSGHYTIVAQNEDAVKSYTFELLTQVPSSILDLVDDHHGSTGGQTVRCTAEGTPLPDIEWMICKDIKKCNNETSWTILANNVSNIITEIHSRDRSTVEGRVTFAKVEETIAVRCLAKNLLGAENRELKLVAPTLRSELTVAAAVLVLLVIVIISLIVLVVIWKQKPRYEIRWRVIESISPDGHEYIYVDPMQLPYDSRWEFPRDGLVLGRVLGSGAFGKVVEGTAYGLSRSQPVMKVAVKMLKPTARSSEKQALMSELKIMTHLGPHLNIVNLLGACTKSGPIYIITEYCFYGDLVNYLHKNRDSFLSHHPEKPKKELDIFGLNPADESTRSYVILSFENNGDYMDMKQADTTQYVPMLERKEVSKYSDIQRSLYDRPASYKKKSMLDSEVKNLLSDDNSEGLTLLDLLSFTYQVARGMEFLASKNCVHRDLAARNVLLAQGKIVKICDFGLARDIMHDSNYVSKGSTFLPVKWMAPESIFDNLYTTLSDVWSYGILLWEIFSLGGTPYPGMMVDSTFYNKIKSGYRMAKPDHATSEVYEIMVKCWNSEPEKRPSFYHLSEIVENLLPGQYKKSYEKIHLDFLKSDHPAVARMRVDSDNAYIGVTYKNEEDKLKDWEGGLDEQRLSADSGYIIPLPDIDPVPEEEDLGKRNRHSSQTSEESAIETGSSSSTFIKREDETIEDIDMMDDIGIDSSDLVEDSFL

IC50 (PDGFRα; [4]) [nM]	MBP Fold Induction (Over vehicle) [1]	GPR17 Fold Induction (Over Vehicle; 3 μM) ([2]; fold change over vehicle)	GPR17 Fold Induction (Over Vehicle; 5 μM) [2, 5]	IC50 (PDGFRα; [6]) [nM]	IC50 Values on PDGFRα Kinase Inhibition, IC50 (nM) (PDGFRα; [7])	In vivo GPR17+ cells, GPR17 Fold Induction (Over Vehicle) [3]	GPR17 Fold Induction (Over Vehicle; 5 μM) [2, 8]	Compound	fold induction at 3 mg/kg [3]
1680	2.33	10.86	3.18	–	–	–	–	Cn1cc(-c2ccc3c(N4CCN(c5ncc(Cc6ccccc6)cn5)CC4)cnn3n2)cn1 [Compound 8, 3-[4-(5-benzylpyrimidin-2-yl)piperazin-1-yl]-6-(1-methyl-1H-pyrazol-4-yl)pyrazolo[1,5-b]pyridazine]	–
6190	1.41	5.65	3.81	–	–	–	–	Cn1cc(-c2ccc3c(N4CCN(c5ncccn5)CC4)cnn3c2)cn1 [Compound 10, 6-(1-methyl-1H-pyrazol-4-yl)-3-(4-pyrimidin-2-ylpiperazin-1-yl)pyrazolo[1,5-a]pyridine]	–
1410	1.97	6.37	3.98	–	–	–	–	Cn1cc(-c2ccc3c(N4CCN(C(=O)OCCC5CCOCC5)CC4)cnn3c2)cn1 [Compound 15, 2-(tetrahydro-2H-pyran-4-yl)ethyl 4-[6-(1-methyl-1H-pyrazol-4-yl)pyrazolo[1,5-a]pyridin-3-yl]piperazine-1-carboxylate]	–
283	5.15	6.82	2.39	< 1000	–	–	–	CCC(CC)OC(=O)N1CCN(c2cnn3cc(-c4cnn(C)c4)ccc23)CC1 [Compound 16, 1-ethylpropyl 4-[6-(1-methyl-1H-pyrazol-4-yl)pyrazolo[1,5-a]pyridin-3-yl]piperazine-1-carboxylate]	–
1650	1.77	4.40	3.50	–	–	–	–	Cn1cc(-c2ccc3c(N4CCN(C(=O)Cc5ccccc5)CC4)cnn3c2)cn1 [Compound 18, 6-(1-methyl-1H-pyrazol-4-yl)-3-[4-(phenylacetyl)piperazin-1-yl]pyrazolo[1,5-a]pyridine]	–
925	4.26	9.41	3.20	–	–	–	–	COCCn1cc(-c2ccc3c(N4CCN(c5ncc(Cc6ccccc6)cn5)CC4)cnn3c2)cn1 [Compound 29, 3-[4-(5-benzylpyrimidin-2-yl)piperazin-1-yl]-6-[1-(2-methoxyethyl)-1H-pyrazol-4-yl]pyrazolo[1,5-a]pyridine]	–
320	2.96	10.59	6.99	–	–	–	–	Cn1cc(-c2ccc3c(N4CCN(C(=O)OC5CCC5)CC4)cnn3c2)cn1 [Compound 32, cyclobutyl 4-[6-(1-methyl-1H-pyrazol-4-yl)pyrazolo[1,5-a]pyridin-3-yl]piperazine-1-carboxylate]	–
7.17	2.44	13.76	7.14	–	–	–	–	C[C@@H](OC(=O)N1CCN(c2cnn3cc(-c4cnn(C)c4)ccc23)CC1)c1ccccc1 [Compound 33, (R)-1-phenylethyl 4-(6-(1-methyl-1H-pyrazol-4-yl)pyrazolo[1,5-a]pyridin-3-yl)piperazine-1-carboxylate]	–
786	2.00	5.16	5.12	–	–	–	–	C[C@H](OC(=O)N1CCN(c2cnn3cc(-c4cnn(C)c4)ccc23)CC1)c1ccccc1 [Compound 34, (S)-1-phenylethyl 4-(6-(1-methyl-1H-pyrazol-4-yl)pyrazolo[1,5-a]pyridin-3-yl)piperazine-1-carboxylate]	–
–	16.83	7.07	–	–	–	–	–	Cn1cc(-c2ccc3c(N4CCN(c5ncc(C(O)Cc6ccccc6)cn5)CC4)cnn3c2)cn1 (stereo not shown) [Compound 167, 1-(2-{4-[6-(1-methyl-1H-pyrazol-4-yl)pyrazolo[1,5-a]pyridin-3-yl]piperazin-1-yl}pyrimidin-5-yl)-2-phenylethanol]	–
11.8	–	5.57	–	–	–	–	–	C[C@@H](OC(=O)N1CCN(c2cnn3cc(-c4cnn(C)c4)ccc23)CC1)c1ccc(OC(F)(F)F)cc1 [Compound 268, (1R)-1-[4-(trifluoromethoxy)phenyl]ethyl 4-[6-(1-methyl-1H-pyrazol-4-yl)pyrazolo[1,5-a]pyridin-3-yl]piperazine-1-carboxylate]	7.02
158	–	7.71	–	–	–	–	–	C[C@@H](OC(=O)N1CCN(c2cnn3cc(-c4cnn(C)c4)ccc23)CC1)c1ccc(Cl)cc1Cl [Compound 270, (1R)-1-(2,4-dichlorophenyl)ethyl 4-[6-(1-methyl-1H-pyrazol-4-yl)pyrazolo[1,5-a]pyridin-3-yl]piperazine-1-carboxylate]	1.92
13	–	9.05	–	–	–	–	–	CC(OC(=O)N1CCN(c2cnn3cc(-c4cnn(C)c4)ccc23)CC1)c1ccc(C(F)(F)F)c(F)c1 (stereo not shown) [Compound 273, 1-(3-fluoro-4-(trifluoromethyl)phenyl)ethyl 4-(6-(1-methyl-1H-pyrazol-4-yl)pyrazolo[1,5-a]pyridin-3-yl)piperazine-1-carboxylate]	3.78
58.9	–	3.62	–	–	–	–	–	Cn1cc(-c2ccc3c(N4CCN(C(=O)NCc5ccc(C(F)(F)F)cc5)CC4)cnn3c2)cn1 [Compound 279, 4-[6-(1-methyl-1H-pyrazol-4-yl)pyrazolo[1,5-a]pyridin-3-yl]-N-[4-(trifluoromethyl)benzyl]piperazine-1-carboxamide]	6.33
–	–	6.40	–	–	BLQ	–	–	C[C@@H](OC(=O)N1CCN(c2cnc3cc(-c4cnn(C)c4)cnn23)CC1)c1ccc(Cl)cc1 [Compound 282, (R)-1-(4-chlorophenyl)ethyl 4-(7-(1-methyl-1H-pyrazol-4-yl)imidazo[1,2-b]pyridazin-3-yl)piperazine-1-carboxylate]	4.02
–	–	5.90	–	–	BLQ	–	–	C[C@@H](OC(=O)N1CCN(c2cnc3cc(-c4cnn(C)c4)cnn23)CC1)c1ccc(C(F)(F)F)cc1 [Compound 283, (R)-1-(4-(trifluoromethyl)phenyl)ethyl 4-(7-(1-methyl-1H-pyrazol-4-yl)imidazo[1,2-b]pyridazin-3-yl)piperazine-1-carboxylate]	6.8
547	–	4.27	–	–	–	–	–	C[C@@H](OC(=O)N1CCN(c2cnn3cc(-c4cnn(C)c4)ccc23)CC1)c1cccnc1 [Compound 315, (1R)-1-pyridin-3-ylethyl 4-[6-(1-methyl-1H-pyrazol-4-yl)pyrazolo[1,5-a]pyridin-3-yl]piperazine-1-carboxylate]	1.05
17.3	–	12.64	–	–	–	–	–	Cc1ccc(C(C)OC(=O)N2CCN(c3cnn4cc(-c5cnn(C)c5)ccc34)CC2)cn1 (stereo not shown) [Compound 317, 1-(6-methylpyridin-3-yl)ethyl 4-[6-(1-methyl-1H-pyrazol-4-yl)pyrazolo[1,5-a]pyridin-3-yl]piperazine-1-carboxylate]	2.97
–	–	–	–	> 10000	–	1.16	3.87	COc1cc2c(cc1OC)-c1[nH]nc(Nc3cccc(F)c3)c1C2 [JNJ-10198409, JNJ=10198409, reference compound]	–
–	–	–	–	73.5	–	1.49	6.72	CN1CCN(c2ccc(Nc3ncc4cc(C#N)c(=O)n(C5CCCC5)c4n3)cc2)CC1 [ON123300, reference compound]	–
–	–	–	–	370	–	9.23	3.61	COc1ccc(N2Cc3cnc(Nc4ccc(F)cc4)nc3N([C@@H]3CC[C@@H](O)C3)C2=O)cc1 [RO4396686, reference compound]	–
–	–	–	–	68.8	–	10.68	3.90	CNC(=O)c1cc(COc2nnc(Nc3ccc(Cl)cc3)c3ccoc23)ccn1 [Telatinib, telatinib, reference compound]	–

Compound	IC50 (PDGFRα; [4]) [nM]	MBP Fold Induction (Over vehicle) [1]	GPR17 Fold Induction (Over Vehicle; 3 μM) ([2]; fold change over vehicle)	GPR17 Fold Induction (Over Vehicle; 5 μM) [2, 5]	IC50 (PDGFRα; [6]) [nM]	IC50 Values on PDGFRα Kinase Inhibition, IC50 (nM) (PDGFRα; [7])	In vivo GPR17+ cells, GPR17 Fold Induction (Over Vehicle) [3]	GPR17 Fold Induction (Over Vehicle; 5 μM) [2, 8]	fold induction at 3 mg/kg [3]
3-[4-(5-benzylpyrimidin-2-yl)piperazin-1-yl]-7-(1-methyl-1H-pyrazol-4-yl)imidazo[1,2-b]pyridazine [Compound 52]	1950	2.66	9.09	5.41	–	–	–	–	–
[2H]c1c([2H])c(C(OC(=O)N2CCN(c3cnn4cc(-c5cnn(C)c5)ccc34)CC2)C([2H])([2H])[2H])c([2H])c([2H])c1Cl (stereo not shown) [Compound 291, 1-(4-chlorophenyl-2,3,5,6-d4) ethyl-2,2,2-d3 4-(6-(1-methyl-1H-pyrazol-4-yl)pyrazolo[1,5-a]pyridin-3-yl)piperazine-1-carboxylate]	0.016	–	6.24	–	–	–	–	–	6.93

From patent US20250129067A1 (Progentos Therapeutics, Inc., priority 2021, published 2025)
